For series [1], the target named is T1, hCCR2b (Homo sapiens, UniProt P41597).
T1 sequence (P41597 1-360 isoform P41597-2): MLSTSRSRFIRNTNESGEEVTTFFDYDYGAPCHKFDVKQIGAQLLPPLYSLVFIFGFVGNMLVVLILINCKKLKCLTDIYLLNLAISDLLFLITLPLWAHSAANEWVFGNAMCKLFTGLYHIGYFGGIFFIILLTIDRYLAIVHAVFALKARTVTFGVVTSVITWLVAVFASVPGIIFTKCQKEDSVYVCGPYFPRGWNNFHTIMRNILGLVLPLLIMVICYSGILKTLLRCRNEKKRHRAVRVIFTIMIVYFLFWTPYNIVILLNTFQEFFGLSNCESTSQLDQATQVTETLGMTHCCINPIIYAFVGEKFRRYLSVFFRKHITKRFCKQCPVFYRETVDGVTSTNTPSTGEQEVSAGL
The series can be described thus: [3H]-CCR2-RA displacement assay, U2OS-CCR2 membranes. The settings on record: ratio of apparent Ki to Ki of compound 7.

Series [2] concerns the target T2, CCR2 triple mutant C70S/C75S/C232S (Homo sapiens, UniProt P41597, C232S/C70S/C75S).
T2 sequence (P41597 1-360 isoform P41597-2 C70S/C75S/C232S): T1 sequence (P41597 1-360 isoform P41597-2) with C70S, C75S, C232S
The series can be described thus: [3H]-CCR2-RA-[R] washout assay, CHO membranes, CCR2 triple mutant. The settings on record: 160 nM 14, four wash cycles.

For series [3], the target named is T1, hCCR2b. The series can be described thus: NanoBiT β-arrestin1 recruitment assay in live HEK293t cells. The settings on record: unwashed control vs [35S]GTPγS binding assay. (In general: Activated receptors often draw arrestin, which recruitment assays turn into a signal.)
A short description of series [4]: Stability under radioligand binding assay conditions. The class given is physicochemical.

SMILES strings stand for the structures. Substitutions are numbered along the chain they refer to.

Consider `O=C(NCCN=C=S)c1ccc(Oc2ccc(Cl)cc2NS(=O)(=O)c2ccc(Cl)c(C(F)(F)F)c2)cc1` [Compound 11, 4-(4-Chloro-2-((4-chloro-3-(trifluoromethyl)phenyl)sulfonamido)phenoxy)-N-(2-isothiocyanatoethyl)benzamide], for which the “loss/reduction of affinity compared to compound 7” value at hCCR2b [1] came out at 5 fold.

For the compound `O=C(NCCNC(=O)c1ccc(S(=O)(=O)F)cc1)c1ccc(Oc2ccc(Cl)cc2NS(=O)(=O)c2ccc(Cl)c(C(F)(F)F)c2)cc1` [Compound 13, 4-((2-(4-(4-Chloro-2-((4-chloro-3-(trifluoromethyl)phenyl)sulfonamido)phenoxy)benzamido)ethyl)carbamoyl)benzenesulfonyl Fluoride], the “loss/reduction of affinity compared to compound 7” value at hCCR2b [1] amounted to 15 fold.

In the case of `N#CSCCNC(=O)c1ccc(Oc2ccc(Cl)cc2NS(=O)(=O)c2ccc(Cl)c(C(F)(F)F)c2)cc1` [Compound 14, 4-(4-Chloro-2-((4-chloro-3-(trifluoromethyl)phenyl)sulfonamido)phenoxy)-N-(2-thiocyanatoethyl)benzamide], in series [2], the “[3H]-CCR2-RA-[R] binding after washout” value is reported as “recovered to levels comparable to compound 7”. Also, the “higher potency in β-arrestin recruitment than in [35S]GTPγS binding assay” value at hCCR2b [3] worked out at 8 fold. In series [4] (25 μM, 50 mM Tris-HCl pH 7.4, 5 mM MgCl2, 0.1% CHAPS, room temperature, data not shown), the “time compound remained intact in assay buffer” value is recorded as “over 6 h”. In series [4] (1 mM compound, 37 °C, over 4 h), the “stability at higher concentration and temperature” value is on record as “gradual degradation”.

The values above are taken from publication PMC7958898 (Journal of Medicinal Chemistry, 2021).
